A short description of series [1]: Particle size distribution by laser light diffraction (Malvern Mastersizer 2000, Fraunhofer). The format is physicochemical. The conditions noted are these: cumulative volume. Here is the method: In some embodiments, the particle size distribution and the PSD90 of a compound of the invention is determined by the laser light diffraction particle size distribution analysis. The particle size distribution is determined in accordance with the Fraunhofer light diffraction method. In this method, a coherent laser beam passes through the sample and the resulting diffraction pattern is focused on a multi-element detector. Since the diffraction pattern depends, among other parameters, on particle size, the particle size distribution can be calculated based on the measured diffraction pattern of the sample. The method is described in more detail in USP38-NF33, <429> Light Diffraction Measurement of Particle Size.
The particle size distribution was determined in accordance with the Fraunhofer light diffraction method. A coherent laser beam was passed through the sample and the resulting diffraction pattern was focused on a multi-element detector. Because the diffraction pattern depends, among other parameters, on particle size, the particle size distribution (PSD) was calculated based on the measured diffraction patter of the sample.
Stock dispersion solution was prepared by adding a few drops of the dispersing aid (e.g., 1% w/w solution of a detergent in white spirit such as Span 80, Fluka (85548-250 ml)) to an appropriate amount of substance and mixed carefully. The dispersion was then slowly diluted to a final volume of about 10 ml while vortexing. The suspension cell of the instrument (Malvern Mastersizer 2000 equipped with Hydro 2000S sample dispersion unit) was filled with dispersion medium and a background measurement was taken. […] The cumulative volume distribution was determined in accordance with the instrument's instruction manual.
The PSD10, PSD50, and PSD90 values were determined from the cumulative volume distribution of each measurement. Values smaller than 10 μm were reported to one decimal place. Results larger than 10 μm were reported as single digit values. Sample parameters used in analysis are shown below: […]

Series [2] deals with hepatic mRNA expression in STAM™ mice. The experiment in a line: Murine STAM model of NASH-HCC: hepatic gene expression by quantitative RT-PCR. The format is in vivo, mouse. Here is the method: A study was performed to evaluate the efficacy of gemcabene calcium salt hydrate Crystal Form 1 having a PSD90 of 52 μm as measured by laser light diffraction, in treating non-alcoholic steatosis hepatitis (NASH) in the murine STAM™ model of NASH-HCC.
Briefly, two-day old neonatal C57BL/6 male mice were administered low-dose streptozotocin (STZ), and were subsequently fed a HFC diet from 4 weeks of age. In this model, the mice typically develop liver steatosis and diabetes, reaching steatohepatitis within 3 weeks, followed by cirrhosis within 8 weeks, and carcinoma within 16 weeks. In the current study, mice were administered daily oral gemcabene calcium salt hydrate Crystal Form 1 starting at week 6 of age and were sacrificed at week 9. Telmisartan (with antisteatotic, anti-inflammatory and antifibrotic effects in STAM™ mice) was used as a positive comparator. A baseline reference group was administered vehicle at day 2 of age, and from week 6 of age was vehicle-treated and chow-fed. Five STAM™ groups were streptozocin-treated at day 2 of age and fed a HFC-diet beginning with week 4 of age. These STAM™ groups were orally administered from week 6 one of the following: water-vehicle, gemcabene calcium salt hydrate Crystal Form 1 at 30, 100 and 300 mg/kg daily, or telmisartan ([…]®) 10 mg/kg daily. Telmisartan ([…]®) was purchased from Boehringer Ingelheim GmbH (Germany) and dissolved in pure water. All groups were sacrificed at week 9. Vehicle, gemcabene calcium salt hydrate Crystal Form 1, or telmisartan were administered by oral gavage once daily.
Various gene expression markers of liver metabolism were evaluated by Real-Time PCR (RT-PCR) in all mouse groups. Total RNA was extracted from liver samples using RNAiso (Takara Bio, Japan) according to the manufacturer's instructions. One μg of RNA was reverse-transcribed using a reaction mixture containing 4.4 mM MgCl2 (F. Hoffmann-La Roche, Switzerland), 40 U RNase inhibitor (Toyobo, Japan), 0.5 mM dNTP (Promega, USA), 6.28 μM random hexamer (Promega), 5× first strand buffer (Promega), 10 mM dithiothreitol (Invitrogen, USA) and 200 U MMLV-RT (Invitrogen) in a final volume of 20 μL. The reaction was carried out for 1 hour at 37° C., followed by 5 minutes at 99° C. Real-time PCR was performed using real-time PCR DICE and SYBR premix Taq (Takara Bio). To calculate the relative mRNA expression level, the expression of each gene was normalized to that of reference gene 36B4 (gene symbol: Rplp0). Information of PCR-primer sets is described in Tables 20A-20C. Statistical analyses were performed using the Bonferroni Multiple Comparison Test on GraphPad Prism 6 (GraphPad Software Inc., USA). P values <0.05 were considered statistically significant. Results are expressed as mean±SD.
In order to calculate the relative mRNA expression level, the expression of each gene was normalized to that of the reference gene 36B4 (gene symbol: Rplp0). The gene expression levels were measured by quantitative RT-PCR. Results were normalized with values for the vehicle-treated normal group. […] Gemcabene calcium salt hydrate Crystal Form 1 (PSD90=52 μm) modulated the mRNA expression of many hepatic genes that play a significant role in the liver homeostasis and injury.

[3] abbreviates: 10 mg/kg, normalized to Vehicle in Normal, mean ± SD, n = 7.

As to `CC(C)(CCCCOCCCCC(C)(C)C(=O)[O-])C(=O)[O-].[Ca+2]` [Sample 3], in series [1], the “D10 (PSD10)” value is on record as 5.3 μm and the “D50 (PSD50)” value is on record as 32.2 μm.
As for `CC(C)(CCCCOCCCCC(C)(C)C(=O)[O-])C(=O)[O-].[Ca+2]` [Sample 7], in series [1], the “D10 (PSD10)” value came out at 5.4 μm, the “D50 (PSD50)” value was found to be 20 μm and the “D90 (PSD90)” value is reported as 62 μm.
For `CCCc1nc2c(C)cc(-c3nc4ccccc4n3C)cc2n1Cc1ccc(-c2ccccc2C(=O)O)cc1` [telmisartan, reference compound], in series [2] (setting [3]), the “ANGPTL3 gene expression (hepatic mRNA, RT-PCR)” value is given as 0.7 ± 0.2; the “ANGPTL4 gene expression (hepatic mRNA, RT-PCR)” value was found to be 2.1 ± 0.3; the “CCR5 gene expression (hepatic mRNA, RT-PCR)” value was 1.5 ± 0.3; the “CXCL1/KC gene expression (hepatic mRNA, RT-PCR)” value was found to be 0.6 ± 0.3. In series [2] (setting [3]), the “LPL gene expression (hepatic mRNA, RT-PCR)” value is listed as 2.4 ± 0.5 and the “Sulf-2 gene expression (hepatic mRNA, RT-PCR)” value was 3.9 ± 0.9. Besides, in series [2] (telmisartan 10 mg/kg, vs vehicle-treated STAM group), the “CRP mRNA levels” value is given as “No significant differences”.
Take `CC(C)(CCCCOCCCCC(C)(C)C(=O)[O-])C(=O)[O-].[Ca+2]` [Sample 6]: in series [1], the “D10 (PSD10)” value is listed as 7.8 μm, the “D50 (PSD50)” value came to 25 μm and the “D90 (PSD90)” value amounted to 52 μm.
Regarding `CC(C)(CCCCOCCCCC(C)(C)C(=O)[O-])C(=O)[O-].[Ca+2]` [Sample 11], the “D90 (PSD90)” value in series [1] is given as 47 μm.
For the compound `CC(C)(CCCCOCCCCC(C)(C)C(=O)[O-])C(=O)[O-].[Ca+2]` [Sample 5], in series [1], the “D10 (PSD10)” value is listed as 7.8 μm, the “D50 (PSD50)” value was 101 μm and the “D90 (PSD90)” value was 431 μm.
The corresponding values for `CC(C)(CCCCOCCCCC(C)(C)C(=O)[O-])C(=O)[O-].[Ca+2]` [Sample 4] are 5.8 μm, 22 μm and 52 μm.
Consider `CC(C)(CCCCOCCCCC(C)(C)C(=O)[O-])C(=O)[O-].[Ca+2]` [Sample 8], for which, in series [1], the “D10 (PSD10)” value turned out to be 8.2 μm, the “D50 (PSD50)” value amounted to 24 μm and the “D90 (PSD90)” value turned out to be 48 μm.
The corresponding values for `CC(C)(CCCCOCCCCC(C)(C)C(=O)[O-])C(=O)[O-].[Ca+2]` [Sample 9] are 17 μm, 386 μm and 996 μm.
With `CC(C)(CCCCOCCCCC(C)(C)C(=O)[O-])C(=O)[O-].[Ca+2]` [Sample 2], in series [1], the “D10 (PSD10)” value was 4.8 μm and the “D50 (PSD50)” value is on record as 22.9 μm.
On the same counts, the results for `CC(C)(CCCCOCCCCC(C)(C)C(=O)[O-])C(=O)[O-].[Ca+2]` [Sample 1] are 6.3 μm and 50.4 μm.
Consider `CC(C)(CCCCOCCCCC(C)(C)C(=O)[O-])C(=O)[O-].[Ca+2]` [Sample 10], for which the “D90 (PSD90)” value in series [1] was 55 μm.

The values above are taken from patent publication US20200148617A1, “GEMCABENE, PHARMACEUTICALLY ACCEPTABLE SALTS THEREOF, COMPOSITIONS THEREOF AND METHODS OF USE THEREFOR” (GEMPHIRE THERAPEUTICS INC., priority 2017, published 2020).
